The values below are quoted from earlier work in CN110302150A, “甲硫氨酸维生素b1注射液及其的制备方法” (Chengdu Cacumen Et Folium Clerodendri Mandarinori …, priority 2019, dated 2019).

Molecules are shown by their SMILES. Like-named read-outs stand apart in the source and are kept apart here.

Take `Cc1ncc(C[n+]2csc(CCO)c2C)c(N)n1` [维生素B1]: the stability result was “不稳定,较易降解” (during production and storage); “不稳定” (high temperature and pH>4).
For the compound `CSCCC(N)C(=O)O` (stereo not drawn) [甲硫氨酸], the stability result (during production and storage) is recorded as “不稳定,较易降解”.
